How the values were obtained:
Assay in all cases: Test D pre-/postemergence plant response
Type in all cases: in vivo
[1] = tested on: pigweed (Amaranthus retroflexus); conditions: Postemergence; for Pigweed plant response rating: scale 0 to 100 (0 no effect, 100 complete control); for Plant response rating, Pigweed: scale 0 to 100, 0 no effect, 100 complete control
Excerpt: (§1) Seeds of plant species selected from blackgrass (Alopecurus myosuroides), Italian ryegrass (Lolium multiflorum), winter wheat (Triticum aestivum), galium (catchweed bedstraw, Galium aparine), corn (Zea mays), large (Lg) crabgrass (Digitaria sanguinalis), giant foxtail (Setaria faberii), johnsongrass (Sorghum halepense), lambsquarters (Chenopodium album), morningglory (Ipomoea coccinea), yellow nutsedge (Cyperus esculentus), pigweed (Amaranthus retroflexus), ragweed (common ragweed, Ambrosia elatior), soybean (Glycine max), bamyardgrass (Echinochloa crus-galli), oilseed rape (Brassica napus), waterhemp (common waterhemp, Amaranthus rudis), and velvetleaf (Abutilon theophrasti) were planted into a blend of loam soil and sand and treated preemergence with test chemicals formulated in a non-phytotoxic solvent mixture which included a surfactant. At the same time, plants selected from these crop and weed species and also kochia (Kochia scoparia), wild oat (Avena fatua), and chickweed (common chickweed, Stellaria media) were planted in pots containing Redi-Earth® planting medium (Scotts Company, 14111 Scottslawn Road, Marysville, Ohio 43041) comprising spaghnum peat moss, vermiculite, wetting agent and starter nutrients and treated with postemergence applications of test chemicals formulated in the same manner. Plants ranged in height from 2 to 18 cm (1- to 4-leaf stage) for postemergence treatments. Treated plants and controls were maintained in a greenhouse for 13 to 15 days, after which time all species were compared to controls and visually evaluated. Plant response ratings, summarized in Table D, are based on a scale of 0 to 100 where 0 is no effect and 100 is complete control. A dash (-) response means no test result.

[2] = tested on: galium (catchweed bedstraw, Galium aparine); conditions: Postemergence; for Galium plant response rating: scale 0 to 100 (0 no effect, 100 complete control); for Plant response rating, Galium: scale 0 to 100, 0 no effect, 100 complete control
Excerpt: as §1

[3] = tested on: johnsongrass (Sorghum halepense); conditions: Postemergence; for Johnsongrass plant response rating: scale 0 to 100 (0 no effect, 100 complete control); for Plant response rating, Johnsongrass: scale 0 to 100, 0 no effect, 100 complete control
Excerpt: as §1

[4] = tested on: barnyardgrass (Echinochloa crus-galli); conditions: Postemergence; for Barnyardgrass plant response rating: scale 0 to 100 (0 no effect, 100 complete control); for Plant response rating, Barnyardgrass: scale 0 to 100, 0 no effect, 100 complete control
Excerpt: as §1

[5] = tested on: large (Lg) crabgrass (Digitaria sanguinalis); conditions: Postemergence; for Crabgrass, Large plant response rating: scale 0 to 100 (0 no effect, 100 complete control); for Plant response rating, Crabgrass, Large: scale 0 to 100, 0 no effect, 100 complete control
Excerpt: as §1

[6] = tested on: giant foxtail (Setaria faberii); conditions: Postemergence; for Foxtail, Giant plant response rating: scale 0 to 100 (0 no effect, 100 complete control); for Plant response rating, Foxtail, Giant: scale 0 to 100, 0 no effect, 100 complete control
Excerpt: as §1

corn (Zea mays) = conditions: Postemergence; for Corn plant response rating: scale 0 to 100 (0 no effect, 100 complete control); for Plant response rating, Corn: scale 0 to 100, 0 no effect, 100 complete control
Excerpt: as §1

[7] = tested on: winter wheat (Triticum aestivum); conditions: Postemergence; for Wheat plant response rating: scale 0 to 100 (0 no effect, 100 complete control); for Plant response rating, Wheat: scale 0 to 100, 0 no effect, 100 complete control
Excerpt: as §1

soybean (Glycine max) = conditions: Postemergence; for Soybean plant response rating: scale 0 to 100 (0 no effect, 100 complete control); for Plant response rating, Soybean: scale 0 to 100, 0 no effect, 100 complete control
Excerpt: as §1

[8] = tested on: blackgrass (Alopecurus myosuroides); conditions: Postemergence; for Blackgrass plant response rating: scale 0 to 100 (0 no effect, 100 complete control); for Plant response rating, Blackgrass: scale 0 to 100, 0 no effect, 100 complete control
Excerpt: as §1

[9] = tested on: lambsquarters (Chenopodium album); conditions: Postemergence; for Lambsquarters plant response rating: scale 0 to 100 (0 no effect, 100 complete control); for Plant response rating, Lambsquarters: scale 0 to 100, 0 no effect, 100 complete control
Excerpt: as §1

[10] = tested on: oilseed rape (Brassica napus); conditions: Postemergence; for Oilseed Rape plant response rating: scale 0 to 100 (0 no effect, 100 complete control); for Plant response rating, Oilseed Rape: scale 0 to 100, 0 no effect, 100 complete control
Excerpt: as §1

[11] = tested on: waterhemp (common waterhemp, Amaranthus rudis); conditions: Postemergence; for Waterhemp plant response rating: scale 0 to 100 (0 no effect, 100 complete control); for Plant response rating, Waterhemp: scale 0 to 100, 0 no effect, 100 complete control
Excerpt: as §1

[12] = tested on: Italian ryegrass (Lolium multiflorum); conditions: Postemergence; for Ryegrass, Italian plant response rating: scale 0 to 100 (0 no effect, 100 complete control); for Plant response rating, Ryegrass, Italian: scale 0 to 100, 0 no effect, 100 complete control
Excerpt: as §1

[13] = tested on: morningglory (Ipomoea coccinea); conditions: Postemergence; for Morningglory plant response rating: scale 0 to 100 (0 no effect, 100 complete control); for Plant response rating, Morningglory: scale 0 to 100, 0 no effect, 100 complete control
Excerpt: as §1

[14] = tested on: ragweed (common ragweed, Ambrosia elatior); conditions: Postemergence; for Ragweed plant response rating: scale 0 to 100 (0 no effect, 100 complete control); for Plant response rating, Ragweed: scale 0 to 100, 0 no effect, 100 complete control
Excerpt: as §1

[15] = tested on: velvetleaf (Abutilon theophrasti); conditions: Postemergence; for Velvetleaf plant response rating: scale 0 to 100 (0 no effect, 100 complete control); for Plant response rating, Velvetleaf: scale 0 to 100, 0 no effect, 100 complete control
Excerpt: as §1

Cn1nnc(-c2ccccc2Oc2ncc(Br)cn2)n1 [Compound 50]
Pigweed plant response rating ([1]; 16 g ai/ha): 0
Pigweed plant response rating ([1]; 31 g ai/ha): 5
Plant response rating, Pigweed ([1]; 62 g ai/ha): 5
Plant response rating, Pigweed ([1]; 125 g ai/ha): 30
Galium plant response rating ([2]; 16 g ai/ha): 30
Galium plant response rating ([2]; 31 g ai/ha): 15
Plant response rating, Galium ([2]; 62 g ai/ha): 5
Plant response rating, Galium ([2]; 125 g ai/ha): 60
Johnsongrass plant response rating ([3]; 16 g ai/ha): 0
Johnsongrass plant response rating ([3]; 31 g ai/ha): 0
Plant response rating, Johnsongrass ([3]; 62 g ai/ha): 0
Plant response rating, Johnsongrass ([3]; 125 g ai/ha): 0
Barnyardgrass plant response rating ([4]; 16 g ai/ha): 0
Barnyardgrass plant response rating ([4]; 31 g ai/ha): 0
Plant response rating, Barnyardgrass ([4]; 62 g ai/ha): 0
Plant response rating, Barnyardgrass ([4]; 125 g ai/ha): 0
Crabgrass, Large plant response rating ([5]; 16 g ai/ha): 0
Crabgrass, Large plant response rating ([5]; 31 g ai/ha): 0
Plant response rating, Crabgrass, Large ([5]; 62 g ai/ha): 0
Plant response rating, Crabgrass, Large ([5]; 125 g ai/ha): 5
Foxtail, Giant plant response rating ([6]; 16 g ai/ha): 0
Foxtail, Giant plant response rating ([6]; 31 g ai/ha): 0
Plant response rating, Foxtail, Giant ([6]; 62 g ai/ha): 5
Plant response rating, Foxtail, Giant ([6]; 125 g ai/ha): 35
Corn plant response rating (corn (Zea mays); 16 g ai/ha): 0
Corn plant response rating (corn (Zea mays); 31 g ai/ha): 0
Plant response rating, Corn (corn (Zea mays); 62 g ai/ha): 0
Plant response rating, Corn (corn (Zea mays); 125 g ai/ha): 5
Wheat plant response rating ([7]; 16 g ai/ha): 0
Wheat plant response rating ([7]; 31 g ai/ha): 0
Plant response rating, Wheat ([7]; 62 g ai/ha): 5
Plant response rating, Wheat ([7]; 125 g ai/ha): 5
Soybean plant response rating (soybean (Glycine max); 16 g ai/ha): 5
Soybean plant response rating (soybean (Glycine max); 31 g ai/ha): 5
Plant response rating, Soybean (soybean (Glycine max); 62 g ai/ha): 20
Plant response rating, Soybean (soybean (Glycine max); 125 g ai/ha): 40
Blackgrass plant response rating ([8]; 16 g ai/ha): 0
Blackgrass plant response rating ([8]; 31 g ai/ha): 0
Plant response rating, Blackgrass ([8]; 62 g ai/ha): 0
Plant response rating, Blackgrass ([8]; 125 g ai/ha): 0
Lambsquarters plant response rating ([9]; 16 g ai/ha): 0
Lambsquarters plant response rating ([9]; 31 g ai/ha): 5
Plant response rating, Lambsquarters ([9]; 62 g ai/ha): 50
Plant response rating, Lambsquarters ([9]; 125 g ai/ha): 5
Oilseed Rape plant response rating ([10]; 16 g ai/ha): 5
Oilseed Rape plant response rating ([10]; 31 g ai/ha): 5
Plant response rating, Oilseed Rape ([10]; 62 g ai/ha): 10
Plant response rating, Oilseed Rape ([10]; 125 g ai/ha): 30
Waterhemp plant response rating ([11]; 16 g ai/ha): 0
Waterhemp plant response rating ([11]; 31 g ai/ha): 0
Plant response rating, Waterhemp ([11]; 62 g ai/ha): 0
Plant response rating, Waterhemp ([11]; 125 g ai/ha): 40
Ryegrass, Italian plant response rating ([12]; 16 g ai/ha): 0
Ryegrass, Italian plant response rating ([12]; 31 g ai/ha): 0
Plant response rating, Ryegrass, Italian ([12]; 62 g ai/ha): 0
Plant response rating, Ryegrass, Italian ([12]; 125 g ai/ha): 0
Morningglory plant response rating ([13]; 16 g ai/ha): 0
Morningglory plant response rating ([13]; 31 g ai/ha): 0
Plant response rating, Morningglory ([13]; 62 g ai/ha): 10
Plant response rating, Morningglory ([13]; 125 g ai/ha): 20
Ragweed plant response rating ([14]; 16 g ai/ha): 5
Ragweed plant response rating ([14]; 31 g ai/ha): 5
Plant response rating, Ragweed ([14]; 62 g ai/ha): 5
Plant response rating, Ragweed ([14]; 125 g ai/ha): 15
Velvetleaf plant response rating ([15]; 16 g ai/ha): 0
Velvetleaf plant response rating ([15]; 31 g ai/ha): 0
Plant response rating, Velvetleaf ([15]; 62 g ai/ha): 0
Plant response rating, Velvetleaf ([15]; 125 g ai/ha): 40

Reference: patent US10131652B2, “Pyrimidinyloxy benzene derivatives as herbicides” (E. I. DU PONT DE NEMOURS AND COMPANY, priority 2014, dated 2018)
